Test results reported in PMC11219744, “Renal excretion of 1,2-dihydroxynaphthalene (DHN) in firefighting instructors after exposure to polycyclic aromatic hydrocarbons (PAHs) during live fire training” (Scientific Reports, 2024).
Where “and” joins values, the source holds several entries; their conditions need not be identical. Equal values may be shown once. Read-outs that look alike come from different tables or passages of the source.

How the values were obtained:
[1] = Human biomonitoring: urinary excretion of PAH metabolites (GC–MS/MS, creatinine-normalised) in firefighting instructors before and after live fire training; settings: for Median increase in morning urine after exposure (sampling 9) vs. before (sampling 1) / concentration at 6 h: male, human, in vivo; for Median increase in morning urine after exposure (sampling 9) vs. before (sampling 1): 18 h; for concentration at 6 h: Concentration in urine, sampling 6, corresponding to end of shift; for Median increase from baseline (sample 2) to peak excretion: peak: sample 5 for 1-PYR, sample 4 otherwise
Method: All study participants (n = 6) were male firefighting instructors from Germany. […] Before the start of the study, all subjects declared that they were non-smokers. Tattoo bearers were excluded before the start of the study as tattoo ink can be a potential source of polycyclic aromatic hydrocarbons. The authors declare that this research was conducted in accordance with the relevant regulations, including the Declaration of Helsinki. All subjects gave written informed consent after being informed about the study by the investigator.
Exposure to combustion products took place in several training sessions that simulated live fire conditions by burning a defined number of uncoated chipboards in an overseas container. The container was located in a hall with exhaust air purification. […] In addition, all subjects wore long-sleeved undergarments under their turnout gear. Only laundered clothing and cleaned equipment (e.g. helmets, masks) were used. The donning and doffing of clothing and protective equipment took place only in a smoke-free, well-ventilated area. Immediately after taking off the firefighters' gloves after training, the participants put on nitrile gloves for further undressing. After removing the helmet, flash hood and SCBA face shield, the participants put on particle filtering half masks (FFP3) to remove contaminated turnout jackets and trousers. After a break for rehydration and cool down still wearing their undergarments, the participants went to shower. […] The interval between two consecutive training sessions for each subject was at least six days. […] In this way, each subject was biomonitored at each of the five training sessions. All additional (unscheduled) urinations between the predefined times were also collected in separate containers and pooled afterwards with the next scheduled sample. […] A total of 270 samples were to be collected using this procedure for all participants and five training sessions of each individual. Subjects completed a questionnaire for each sampling period to account for possible pre-exposure or concurrent exposure to PAHs from sources other than the fire simulation unit, such as occupational exposure to combustion products, exposure to tobacco smoke (active/passive) and barbecue activities, and consumption of smoked or charbroiled foods.
In brief, the analytes were extracted by liquid–liquid extraction with n-hexane after enzymatic hydrolysis of the urine samples with ß-glucuronidase/arylsulfatase (isolated from helix pomatia) and derivatised by silylation with N-trimethylsilyl-N-methyl trifluoroacetamide afterwards. […] All standards were obtained from LGC-Standards, Wesel, Germany.
DHN in urine was determined referring to a method described in detail by Klotz et al.[29]. […] External calibration with internal standardisation by an isotopically labelled analogue of the target compound was done by analysis of pool urine samples spiked with the glucuronides of DHN and D6-1,2-dihydroxynaphthalene (internal standard) before enzymatic hydrolysis. Both standards are not commercially available and were obtained as a gift from the Institute of Occupational, Social and Environmental Medicine at the University of Erlangen-Nuremberg (Germany). A detailed description of the synthesis of the compounds is given by[26]. […] Up to now, there is no external quality assessment scheme available for DHN.
Urinary creatinine was analysed in the Institute of Clinical Chemistry and Laboratory Medicine of University Medical Centre of the Johannes Gutenberg University Mainz using a photometrical assay based on the method of[30].

[2] = Time to peak and initial elimination half-life of the urinary biomarkers (first-order model, linear mixed effects); assay type: in vivo, human; settings: for half-life: male, human, in vivo, initial elimination half-life after peak excretion, urine, read-out: Estimated half-life, mean (converted); for Time to peak, median / Time to peak, range: urinary excretion, time after onset of exposure
Excerpt: The initial half-life of each biomarker was estimated using statistical methods described previously[6],[32]. In short, we estimated the first-order elimination rate constant λ based on the model in Eq. (1):1 C=C0+B·e^λ·t+∈
Here, C is the creatinine-adjusted concentration in urine after the uptake phase, C0 is the baseline concentration before training, B is the difference from peak to baseline concentration, t is the time since peak concentration, and ϵ is the error term. […] Using package nlme[33] for the statistical environment R[34],[35], the model was fitted as a linear mixed effects model for the log concentration difference to baseline ln(C–C0) as the outcome. The model was fitted simultaneously for all data and included fixed effects for biomarker, time since peak, and their interaction term. It used random slopes for time since peak and random intercepts for […]. Errors were assumed to be autocorrelated according to an AR(1) process.

[3] = cited from earlier work
[4] = 58 urine samples before onset of exposure, not creatinine-normalised
[5] = sampling 1, morning urine on training day before exposure (mean −4.2 h from start of exposure), n = 30
[6] = sampling 1, morning urine on training day before exposure, n = 30
[7] = sampling 2, before training (mean −0.4 h), n = 28
[8] = sampling 2, before training, n = 28
[9] = sampling 3, at the end of the training session (mean 2.0 h after start of exposure), n = 26
[10] = sampling 3, at the end of the training session, n = 26
[11] = sampling 4, 1 h after the end of training (mean 3.0 h after start of exposure), n = 25
[12] = sampling 4, 1 h after the end of training, n = 25
[13] = sampling 5, 3 h after the end of training (mean 5.2 h after start of exposure), n = 22
[14] = sampling 5, 3 h after the end of training, n = 22
[15] = sampling 6, 6 h after the end of training (mean 8.1 h after start of exposure), n = 23
[16] = sampling 6, 6 h after the end of training, n = 23
[17] = sampling 7, 9 h after the end of training (mean […] after start of exposure), n = 27
[18] = sampling 7, 9 h after the end of training, n = 27
[19] = sampling 8, right before bedtime (mean 12.7 h after start of exposure), n = 27
[20] = sampling 8, right before bedtime, n = 27
[21] = sampling 9, morning urine the next day, 18 h after training (mean 20.1 h after start of exposure), n = 29
[22] = sampling 9, morning urine the next day, n = 29

Oc1ccc2ccccc2c1O [DHN, 1,2-dihydroxynaphthalene]
Concentration in urine, median [1, 4]: 2.89 µg/L
Concentration in urine, range [1, 4]: 0.6 to 19.4 µg/L
Baseline concentration in urine, total range ([1]; before training, samplings 1 and 2 together): 0.9–10.2 µg/g crea. and 0.87–10.19 µg/g crea.
Urinary peak concentration, median (range) ([1]; firefighters after live fire training, sampling 4, n = 6, Germany): 246.7 (18.2–1084.2) µg/l
Median increase in morning urine after exposure (sampling 9) vs. before (sampling 1) [1]: 12.9 fold
concentration at 6 h ([1]; median): 71.3 ng/mL
concentration at 6 h ([1]; range): 16.6 to 674 ng/mL
Median increase from baseline (sample 2) to peak excretion [1]: 41 fold
Individual maximum concentration in urine ([1]; post exposure, sampling 4): 380.4 µg/g crea.
Concentration in urine, median [1, 5]: 2.23 µg/g creatinine
Concentration in urine, IQR [1, 6]: 1.43–4.18 µg/g creatinine
Concentration in urine, range [1, 6]: 0.87–10.19 µg/g creatinine
Concentration in urine, median [1, 7]: 3.3 µg/g creatinine and 3.32 µg/g creatinine
Concentration in urine, IQR [1, 8]: 2.03–4.80 µg/g creatinine
Concentration in urine, range [1, 8]: 1.41–9.04 µg/g creatinine
Concentration in urine, median [1, 9]: 31.60 µg/g creatinine
Concentration in urine, IQR [1, 10]: 25.79–52.81 µg/g creatinine
Concentration in urine, range [1, 10]: 10.68–166.80 µg/g creatinine
Concentration in urine, median [1, 11]: 134.2 µg/g creatinine and 134.15 µg/g creatinine
Concentration in urine, IQR [1, 12]: 92.94–164.89 µg/g creatinine
Concentration in urine, range [1, 12]: 43.38–380.43 µg/g creatinine
Concentration in urine, median [1, 13]: 131.46 µg/g creatinine
Concentration in urine, IQR [1, 14]: 104.83–207.75 µg/g creatinine
Concentration in urine, range [1, 14]: 78.66–375.77 µg/g creatinine
Concentration in urine, median [1, 15]: 86.01 µg/g creatinine
Concentration in urine, IQR [1, 16]: 67.60–137.94 µg/g creatinine
Concentration in urine, range [1, 16]: 46.21–284.21 µg/g creatinine
Concentration in urine, median [1, 17]: 51.58 µg/g creatinine
Concentration in urine, IQR [1, 18]: 40.81–76.67 µg/g creatinine
Concentration in urine, range [1, 18]: 21.95–159.57 µg/g creatinine
Concentration in urine, median [1, 19]: 46.02 µg/g creatinine
Concentration in urine, IQR [1, 20]: 30.70–63.89 µg/g creatinine
Concentration in urine, range [1, 20]: 19.82–154.82 µg/g creatinine
Concentration in urine, median [1, 21]: 27.1 µg/g creatinine and 27.08 µg/g creatinine
Concentration in urine, IQR [1, 22]: 20.03–40.28 µg/g creatinine
Concentration in urine, range [1, 22]: 15.69–139.47 µg/g creatinine
Time of peak excretion after the end of the training session ([2]; by scheduled sampling time): 1 h
Time required to reach pre exposure levels again ([2]; from median maximum 134.15 µg/g crea., about 5 half-lives, monophasic elimination assumed): approximately 33 h
half-life [2]: 6.6 h
Time to peak, median [2]: 3.3 h
Time to peak, range [2]: 2.5 to 19.0 h
Urinary level, median ([3]; 20 non-smoking subjects): 4.6 µg/L
Urinary concentration, GM (GSD) ([3]; coke oven workers, n = 28, China): 452 (2.28) µg/l
Urinary concentration, geometric mean ([3]; control group, n = 22 office and hospital workers including three smokers, China): 38.8 µg/L
Urinary concentration, median ([3]; n = 9 smokers): 17.1 µg/L
Urinary concentration, range ([3]; n = 9 smokers): 1.9 to 62 µg/L
Urinary concentration, median (range) ([3]; wood impregnation workers, n = 9, Germany): 88.3 (10.8–1497) µg/l
Urinary concentration, median (range) ([3]; workers at converter infeed, n = 26, Germany): 945.4 (22.0–1902.6) µg/l
Urinary concentration, median (range) ([3]; workers in the abrasive industry, post-shift Monday, n = 10, Germany): 3944 (114–42,066) µg/l
Urinary concentration, median (range) ([3]; workers in the abrasive industry, post-shift Thursday, n = 10, Germany): 11,162 (337–51,809) µg/l

Oc1ccc2ccc3cccc4ccc1c2c34 [1-PYR, 1-hydroxypyrene]
Median increase in morning urine after exposure (sampling 9) vs. before (sampling 1) [1]: 2.8 fold
Median increase from baseline (sample 2) to peak excretion [1]: 7.9 fold
Maximum excretion pre exposure ([1]; pre exposure samplings): 0.22 µg/g creatinine
Concentration in urine, median [1, 5]: 0.06 µg/g creatinine
Concentration in urine, IQR [1, 6]: 0.04–0.08 µg/g creatinine
Concentration in urine, range [1, 6]: 0.03–0.15 µg/g creatinine
Concentration in urine, median [1, 7]: 0.05 µg/g creatinine
Concentration in urine, IQR [1, 8]: 0.03–0.06 µg/g creatinine
Concentration in urine, median [1, 9]: 0.06 µg/g creatinine
Concentration in urine, IQR [1, 10]: 0.04–0.08 µg/g creatinine
Concentration in urine, median [1, 11]: 0.20 µg/g creatinine
Concentration in urine, IQR [1, 12]: 0.14–0.31 µg/g creatinine
Concentration in urine, range [1, 12]: 0.06–1.61 µg/g creatinine
Concentration in urine, median [1, 13]: 0.40 µg/g creatinine
Concentration in urine, IQR [1, 14]: 0.21–0.59 µg/g creatinine
Concentration in urine, range [1, 14]: 0.16–1.88 µg/g creatinine
Concentration in urine, median [1, 15]: 0.29 µg/g creatinine
Concentration in urine, IQR [1, 16]: 0.19–0.42 µg/g creatinine
Concentration in urine, range [1, 16]: 0.10–1.93 µg/g creatinine
Concentration in urine, median [1, 17]: 0.25 µg/g creatinine
Concentration in urine, IQR [1, 18]: 0.16–0.30 µg/g creatinine
Concentration in urine, range [1, 18]: 0.08–1.56 µg/g creatinine
Concentration in urine, median [1, 19]: 0.21 µg/g creatinine
Concentration in urine, IQR [1, 20]: 0.12–0.33 µg/g creatinine
Concentration in urine, range [1, 20]: 0.06–1.06 µg/g creatinine
Concentration in urine, median [1, 21]: 0.17 µg/g creatinine
Concentration in urine, IQR [1, 22]: 0.10–0.25 µg/g creatinine
Concentration in urine, range [1, 22]: 0.05–0.63 µg/g creatinine
half-life [2]: 7.7 h
Time to peak, median [2]: 5.3 h
Time to peak, range [2]: 2.5 to 13.9 h
